The values that follow come from patent US20050171171A1, “Amide derivatives as FLT-3 modulators” (Ambit Biosciences Corporation, priority 2003, published 2005).

As a reminder, the Kd is the equilibrium constant for the complex coming apart. The low end stands for tighter binding, the high end for weaker binding. The term IC50 denotes the concentration that inhibits the measured activity by half. A low value points to greater potency.

Experiment [1] deals with T1, FLT3(DKIN) (Homo sapiens, UniProt P36888).
T1 construct: 3(DKIN); made in house
T1 sequence (P36888 610-943 limits assumed): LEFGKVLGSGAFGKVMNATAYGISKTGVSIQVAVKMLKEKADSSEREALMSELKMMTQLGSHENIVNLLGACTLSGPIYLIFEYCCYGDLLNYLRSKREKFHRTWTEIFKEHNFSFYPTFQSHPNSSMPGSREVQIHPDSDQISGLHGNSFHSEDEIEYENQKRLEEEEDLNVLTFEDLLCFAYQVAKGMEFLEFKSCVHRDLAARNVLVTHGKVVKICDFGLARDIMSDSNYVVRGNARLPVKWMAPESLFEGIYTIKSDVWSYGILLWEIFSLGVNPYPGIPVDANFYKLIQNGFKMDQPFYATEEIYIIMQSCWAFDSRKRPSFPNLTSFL
In words: Binding Assay: FLT3(DKIN), phage-displayed kinase competition binding (Kd). An excerpt:
(§1) Binding Constant (Kd) Measurements for Small-Molecule-Kinase Interactions
(§2) The term “ND” represents non-determined values.

Experiment [2] has as its system MV4,11 cells. In words: Cell Assay: CS0001, FLT3 assay using MV4,11 cells (MTS proliferation). The class given is cell-based. The settings on record: Homo sapiens. The procedure: The ability of FLT3 kinase inhibitors to inhibit cellular proliferation was also examined. MV4:11 was a cell line derived from a patient with acute myelogenous leukemia. It expressed a mutant FLT3 protein that was constitutively active. […] Inhibition of FLT3 kinase activity prevented proliferation of these cells, and thus the MV4:11 cell line can be used a model for cellular activity of small molecule inhibitors of FLT3.
FLT3 Assay Using MV4,11 Cells
MV4,11 cells were grown in an incubator @ 37° C. in 5% CO2 in Medium 2 (RPM 10% FBS, 4 mM glutamine, Penn/Strep). The cells were counted daily and the cell density was kept between 1e5 and 8e5 cells/ml.
Day One: Enough cells were harvested for experiments to be conducted in 50 ml conical tubes. The harvested cells were spun at 500 g for 5 min at 4° C., the supernatant was then aspirated and the cells were resuspended in the starting volume of 1× PBS. The cells were again spun at 500 g for 5 min at 4° C. and the supernatant again aspirated. The cells were then resuspended in medium 3 (DMEM w/glut, 10% FBS, Penn/Strep) to a density of 4e5 cells/ml and incubated @ 37° C. in 5% CO2 O/N.
Day Two: The cells were counted and enough medium 3 was added to decrease density to 2e5 cells/ml. 50 ul (10,000 cells) was aliquoted into each well of a 96 well optical plate using multichannel pipetman. The compound plate was then set up by aliquoting 3 μl of negative control (DMSO) into column 1 of a 96 well 300 ul polypropylene plate, aliquoting 3 μl of positive control (10 mM AB20121) into column 12 of plate, and aliquoting 3 μl of appropriate compounds from serial dilutions into columns 2-11. To each well, 150 μl of Medium 3 was added and 50 μl of compound/medium mixture from compound plate into rows of optical plate in duplicate. The cells were then incubated @ 37° C. in 5% CO2 for 3 days.
Day Five: MTS was thawed in a H2O bath. 20 μl of MTS was added to each well of optical plate and the cells were incubated @ 37° C. in 5% CO2 for 2 hours. The plate was then placed on a plate shaker for 30 seconds on high speed.

The nature of experiment [3]: Cell Assay: CS0002. In kind it is cell-based.
Experiment [4] has as its target T2, FLT3(JMminus) (Homo sapiens, UniProt P36888).
T2 construct: "FLT 3(JMminus)"; fused on or other part: Fused to a T7 bacteriophage particle (phage display)
T2 sequence (P36888 610-943 limits assumed): T1 sequence (P36888 610-943 limits assumed)
Nature of the experiment: Binding Assay: FLT3(JMminus), phage-displayed kinase competition binding (Kd).
From the text: as §1, §2

With `COc1ccc(CC(=O)Nc2cc(C(C)(C)C)no2)cc1`, in experiment [1], the Kd was less than 100 nM.

In the case of `CC(C)(C)c1cc(NC(=O)Cc2ccc(OCc3ccccc3)cc2)on1`, the Kd in experiment [1] was less than 100 nM. Also, in experiment [2], the IC50 is less than 100 nM.

In experiment [1], `CC(C)(C)c1cc(NC(=O)Cc2ccc(F)cc2)on1` came in with a Kd of less than 100 nM.

The compound `CC(C)(C)c1cc(NC(=O)Cc2ccc(Cl)cc2)on1` registered a Kd in experiment [1] of less than 100 nM.

With `CC(C)(C)c1cc(NC(=O)Cc2ccc(Br)cc2)on1`, the Kd in experiment [1] was less than 100 nM.

As for `COc1ccc(SC(=O)Nc2cc(C(C)(C)C)on2)cc1`, in experiment [1], the dissociation constant (Kd) lay within 1000 to 10000 nM.

The compound `CC(C)(C)c1cc(NC(=O)Sc2ccc(Cl)cc2)no1` yielded a Kd in experiment [1] of 1000 to 10000 nM.

With `COc1ccc(CC(=O)Nc2cc(C3CC3)nn2-c2ccccc2)cc1`, the Kd in experiment [1] was in the range of 1000 to 10000 nM.

`O=C(Cc1ccc(OCc2ccccc2)cc1)Nc1cc(C2CC2)nn1-c1ccccc1` returned a Kd in experiment [1] of 100 to 1000 nM.

`CC(C)(C)c1cc(NC(=O)Cc2ccc(O)cc2)no1` showed a Kd in experiment [1] of 100 to 1000 nM.

In experiment [1], `Cc1csc(NC(=O)Cc2ccc(OCc3ccccc3)cc2)n1` registered a Kd greater than 10000 nM.

`Cc1cnc(NC(=O)Cc2ccc(OCc3ccccc3)cc2)s1` registered a Kd in experiment [1] greater than 10000 nM.

For `O=C(Cc1ccc(OCc2ccccc2)cc1)Nc1nc(-c2ccc(Cl)cc2)cs1`, in experiment [1], the Kd was greater than 10000 nM.

As to `O=C(Cc1ccc(OCc2ccccc2)cc1)Nc1nc2ccccc2s1`, the Kd in experiment [1] was greater than 10000 nM.

In experiment [1], `COc1cccc2sc(NC(=O)Cc3ccc(OCc4ccccc4)cc3)nc12` came in with a Kd greater than 10000 nM.

In turn, `O=C(Cc1ccc(OCc2ccccc2)cc1)Nc1nc2ccc(F)cc2s1` showed a Kd in experiment [1] greater than 10000 nM.

Compound `O=C(Cc1ccc(OCc2ccccc2)cc1)Nc1nc2cc(Cl)ccc2o1` registered a Kd in experiment [1] of 100 to 1000 nM.

`CC(C)(C)c1cc(C(=O)Nc2ccc(OCC3CC3)cc2)no1` came in with a Kd in experiment [1] greater than 10000 nM. In experiment [2], this compound came in with an IC50 of 1000 to 10000 nM.

In the case of `CC(C)(C)c1cc(C(=O)Nc2ccc(OCc3ccccc3F)cc2)no1`, the Kd in experiment [1] lay in the range of 1000 to 10000 nM. The compound also returned an IC50 in experiment [2] of 1000 to 10000 nM.

For the compound `Cc1noc(-c2ccc(-c3noc(-c4cc(C(C)(C)C)on4)n3)cc2)n1`, the Kd in experiment [1] is greater than 10000 nM. The IC50 in experiment [2] is greater than 10000 nM.

As to `CC(C)(C)c1cc(-c2nc(-c3ccc(Cl)cc3)no2)no1`, the Kd in experiment [1] was greater than 10000 nM. This compound gave an IC50 in experiment [2] greater than 10000 nM.

For `CC(C)(C)c1cc(-c2nc(-c3ccc(O)cc3)no2)no1`, the Kd in experiment [1] is greater than 10000 nM. Moreover, the IC50 in experiment [2] was 1000 to 10000 nM.

In experiment [1], `CC(C)(C)c1cc(-c2nc(-c3ccc(OCc4ccccc4F)cc3)no2)no1` had a Kd greater than 10000 nM. The same compound returned an IC50 in experiment [2] of 100 to 1000 nM.

As for `Cc1ccc(NC(=O)c2ccc(-c3noc(-c4cc(C(C)(C)C)on4)n3)cc2)cc1`, the Kd in experiment [1] is greater than 10000 nM. For the same compound, the IC50 in experiment [2] lay in the range of 100 to 1000 nM.

In the case of `Cc1cc(C)n(C(=O)Nc2ccc(Cl)cc2)n1`, in experiment [1], the Kd was greater than 10000 nM. Further, the IC50 in experiment [2] was greater than 10000 nM.

As for `CC(C)(C)c1cc(/C=N/C(=N\O)c2ccc(Cl)cc2)no1`, the Kd in experiment [1] fell in the range of 1000 to 10000 nM. Further, the half-inhibitory concentration (IC50) in experiment [2] lay within 1000 to 10000 nM.

Consider `Cc1nn(C)c(Cl)c1C(=O)Nc1ccc(CC(=O)Nc2cc(C(C)(C)C)on2)cc1`, for which the IC50 in experiment [2] was 100 to 1000 nM; in experiment [3], greater than 10000 nM. The same compound showed a Kd in experiment [4] of less than 100 nM.

Consider `CSc1ncc(Br)c(C(=O)Nc2ccc(CC(=O)Nc3cc(C(C)(C)C)on3)cc2)n1`, for which the figures for the IC50 in experiment [2] and in experiment [3] were less than 100 nM and greater than 10000 nM, respectively. Further, in experiment [4], the Kd is less than 100 nM.

Take `CC(C)(C)c1cc(NC(=O)Cc2ccc(NC(=O)c3ccc4cnccc4n3)cc2)no1`: the IC50 was less than 100 nM in experiment [2] and greater than 10000 nM in experiment [3]. In addition, the Kd in experiment [4] was less than 100 nM.

For the compound `Cn1cc(C(=O)Nc2ccc(CC(=O)Nc3cc(C(C)(C)C)on3)cc2)c2ccccc21`, the IC50 in experiment [2] is less than 100 nM; in experiment [3], greater than 10000 nM. This compound also gave a Kd in experiment [4] of less than 100 nM.

As for `CC(C)(C)c1cc(NC(=O)Cc2ccc(NC(=O)c3cccc4cccnc34)cc2)no1`, the IC50 was 1000 to 10000 nM in experiment [2] and greater than 10000 nM in experiment [3]. The compound also displayed a Kd in experiment [4] of 100 to 1000 nM.

For `CC(C)(C)c1cc(NC(=O)Cc2ccc(NC(=O)c3cnc4ccccc4c3)cc2)no1`, the IC50 was less than 100 nM in experiment [2] and greater than 10000 nM in experiment [3]. Besides, in experiment [4], the Kd was less than 100 nM.
